Test system: TPM3-NTRK1-wt IC50 / primary target (e.g. CD74-ROS1-wt) IC50, Ba/F3 cells
Experiment: Cell assay TRKA selectivity (TRKA potency divided by primary target potency)
Type: cell-based
Settings: for TPM3-NTRK1-wt/CD74-ROS1-G2032R: TRKA selectivity ratio: TPM3-NTRK1-wt IC50 / CD74-ROS1-G2032R IC50, Ba/F3 cells; for TPM3-NTRK1-wt/CD74-ROS1-wt: TRKA selectivity ratio: TPM3-NTRK1-wt IC50 / CD74-ROS1-wt IC50, Ba/F3 cells; for TPM3-NTRK1-wt/EML4-ALK-L1196M-G1202R: TRKA selectivity ratio: TPM3-NTRK1-wt IC50 / EML4-ALK-L1196M-G1202R IC50, Ba/F3 cells; for TPM3-NTRK1-wt/EML4-ALK-wt: TRKA selectivity ratio: TPM3-NTRK1-wt IC50 / EML4-ALK-wt IC50, Ba/F3 cells
How it was run: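 IL-3-independent Ba/F3 lines stably expressing TPM3-TRKA or the primary fusion (e.g. CD74-ROS1 wt) were exposed to 3-fold compound dilutions for 72 h. Viability was read by CellTiter-Glo luminescence, with IC50 from four-parameter logistic fit. Selectivity is TPM3-NTRK1 IC50 divided by primary-target IC50, binned A (>30-fold) to D (<1).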

Cn1nc(C#N)c2c1Cc1cc(Cl)nn1-c1ccc(F)cc1COc1cc-2cnc1N [Example 113, 22-amino-10-chloro-16-fluoro-5-methyl-20-oxa-4,5,11,12,23-pentaazapentacyclo[19.3.1.0^2,^6.0^8,^12.0^13,^18]pentacosa-1(24),2(6),3,8,10,13,15,17,21(25),22-decaene-3-carbonitrile]
TPM3-NTRK1-wt/CD74-ROS1-G2032R: A (bin A for very high selectivity, ratio>30-fold)
TPM3-NTRK1-wt/CD74-ROS1-wt: A (bin A for very high selectivity, ratio>30-fold)
TPM3-NTRK1-wt/EML4-ALK-L1196M-G1202R: C (bin C for moderate selectivity, ratio≥1)
TPM3-NTRK1-wt/EML4-ALK-wt: A (bin A for very high selectivity, ratio>30-fold)

Cc1nc2c(s1)Cc1nnn(CC3CC3)c1-c1cnc(N)c(c1)O[C@H](C)c1cc(F)ccc1-2 [Example 114, (19R)-3-(cyclopropylmethyl)-16-fluoro-10,19-dimethyl-20-oxa-9-thia-3,4,5,11,23-pentaazapentacyclo[19.3.1.0^2,^6.0^8,^12.0^13,^18]pentacosa-1(24),2(6),4,8(12),10,13,15,17,21(25),22-decaen-22-amine]
TPM3-NTRK1-wt/CD74-ROS1-G2032R: A (bin A for very high selectivity, ratio>30-fold)
TPM3-NTRK1-wt/CD74-ROS1-wt: A (bin A for very high selectivity, ratio>30-fold)
TPM3-NTRK1-wt/EML4-ALK-L1196M-G1202R: A (bin A for very high selectivity, ratio>30-fold)
TPM3-NTRK1-wt/EML4-ALK-wt: A (bin A for very high selectivity, ratio>30-fold)

Cc1nc2c(s1)Cc1c(c(C#N)nn1C)-c1cnc(N)c(c1)OCc1cc(F)ccc1-2 [Example 115, 22-amino-16-fluoro-5,10-dimethyl-20-oxa-9-thia-4,5,11,23-tetraazapentacyclo[19.3.1.0^2,^6.0^8,^12.0^13,^18]pentacosa-1(24),2(6),3,8(12),10,13,15,17,21(25),22-decaene-3-carbonitrile]
TPM3-NTRK1-wt/CD74-ROS1-G2032R: A (bin A for very high selectivity, ratio>30-fold)
TPM3-NTRK1-wt/CD74-ROS1-wt: A (bin A for very high selectivity, ratio>30-fold)
TPM3-NTRK1-wt/EML4-ALK-L1196M-G1202R: B (bin B for high selectivity, ratio>10-fold)
TPM3-NTRK1-wt/EML4-ALK-wt: A (bin A for very high selectivity, ratio>30-fold)

C[C@H]1Oc2cc(cnc2N)-c2c(nnn2CC2CC2)Cc2cccnc2-c2ccc(F)cc21 [Example 116, (20R)-3-(cyclopropylmethyl)-17-fluoro-20-methyl-21-oxa-3,4,5,12,24-pentaazapentacyclo[20.3.1.0^2,^6.0^8,^13.0^14,^19]hexacosa-1(25),2(6),4,8(13),9,11,14,16,18,22(26),23-undecaen-23-amine]
TPM3-NTRK1-wt/CD74-ROS1-G2032R: A (bin A for very high selectivity, ratio>30-fold)
TPM3-NTRK1-wt/CD74-ROS1-wt: A (bin A for very high selectivity, ratio>30-fold)
TPM3-NTRK1-wt/EML4-ALK-L1196M-G1202R: A (bin A for very high selectivity, ratio>30-fold)
TPM3-NTRK1-wt/EML4-ALK-wt: A (bin A for very high selectivity, ratio>30-fold)

C[C@H]1Oc2cc(cnc2N)-c2c(C#N)nn(C)c2Cc2ccccc2-c2ccc(F)cc21 [Example 117, (20R)-23-amino-17-fluoro-5,20-dimethyl-21-oxa-4,5,24-triazapentacyclo[20.3.1.0^2,^6.0^8,^13.0^14,^19]hexacosa-1(25),2(6),3,8(13),9,11,14,16,18,22(26),23-undecaene-3-carbonitrile]
TPM3-NTRK1-wt/CD74-ROS1-G2032R: A (bin A for very high selectivity, ratio>30-fold)
TPM3-NTRK1-wt/CD74-ROS1-wt: A (bin A for very high selectivity, ratio>30-fold)
TPM3-NTRK1-wt/EML4-ALK-L1196M-G1202R: B (bin B for high selectivity, ratio>10-fold)
TPM3-NTRK1-wt/EML4-ALK-wt: A (bin A for very high selectivity, ratio>30-fold)

CC(C)n1nc2c(c1C#N)-c1cnc(N)c(c1)O[C@H](C)c1cc(F)ccc1-n1nccc1C2 [Example 118, (19R)-22-amino-16-fluoro-19-methyl-4-(propan-2-yl)-20-oxa-4,5,11,12,23-pentaazapentacyclo[19.3.1.0^2,^6.0^8,^12.0^13,^18]pentacosa-1(24),2,5,8,10,13,15,17,21(25),22-decaene-3-carbonitrile]
TPM3-NTRK1-wt/CD74-ROS1-G2032R: D (bin D for low selectivity, ratio<1)
TPM3-NTRK1-wt/CD74-ROS1-wt: A (bin A for very high selectivity, ratio>30-fold)
TPM3-NTRK1-wt/EML4-ALK-L1196M-G1202R: D (bin D for low selectivity, ratio<1)
TPM3-NTRK1-wt/EML4-ALK-wt: A (bin A for very high selectivity, ratio>30-fold)

CCn1nc2c(c1C#N)-c1cnc(N)c(c1)O[C@H](C)c1cc(F)ccc1-n1nccc1C2 [Example 119, (19R)-22-amino-4-ethyl-16-fluoro-19-methyl-20-oxa-4,5,11,12,23-pentaazapentacyclo[19.3.1.0^2,^6.0^8,^12.0^13,^18]pentacosa-1(24),2,5,8,10,13,15,17,21(25),22-decaene-3-carbonitrile]
TPM3-NTRK1-wt/CD74-ROS1-G2032R: D (bin D for low selectivity, ratio<1)
TPM3-NTRK1-wt/CD74-ROS1-wt: A (bin A for very high selectivity, ratio>30-fold)
TPM3-NTRK1-wt/EML4-ALK-L1196M-G1202R: D (bin D for low selectivity, ratio<1)
TPM3-NTRK1-wt/EML4-ALK-wt: A (bin A for very high selectivity, ratio>30-fold)

CCc1noc2c1-c1cnc(N)c(c1)O[C@H](C)c1cc(F)ccc1-c1nncn1C2 [Example 120, (19R)-3-ethyl-16-fluoro-19-methyl-5,20-dioxa-4,8,10,11,23-pentaazapentacyclo[19.3.1.0^2,^6.0^8,^12.0^13,^18]pentacosa-1(24),2(6),3,9,11,13,15,17,21(25),22-decaen-22-amine]
TPM3-NTRK1-wt/CD74-ROS1-G2032R: C (bin C for moderate selectivity, ratio≥1)
TPM3-NTRK1-wt/CD74-ROS1-wt: A (bin A for very high selectivity, ratio>30-fold)
TPM3-NTRK1-wt/EML4-ALK-L1196M-G1202R: D (bin D for low selectivity, ratio<1)
TPM3-NTRK1-wt/EML4-ALK-wt: C (bin C for moderate selectivity, ratio≥1)

C[C@H]1Oc2cc(cnc2N)-c2c(cnn2CC2CC2)Cc2cn(C)nc2-c2ccc(F)cc21 [Example 121, (19R)-3-(cyclopropylmethyl)-16-fluoro-10,19-dimethyl-20-oxa-3,4,10,11,23-pentaazapentacyclo[19.3.1.0^2,^6.0^8,^12.0^13,^18]pentacosa-1(24),2(6),4,8,11,13,15,17,21(25),22-decaen-22-amine]
TPM3-NTRK1-wt/CD74-ROS1-G2032R: A (bin A for very high selectivity, ratio>30-fold)
TPM3-NTRK1-wt/CD74-ROS1-wt: A (bin A for very high selectivity, ratio>30-fold)
TPM3-NTRK1-wt/EML4-ALK-L1196M-G1202R: A (bin A for very high selectivity, ratio>30-fold)
TPM3-NTRK1-wt/EML4-ALK-wt: A (bin A for very high selectivity, ratio>30-fold)

C[C@H]1Oc2cc(cnc2N)-c2c(nnn2CC2CC2)Cc2cc(C(F)F)nn2-c2ccc(F)cc21 [Example 122, (19R)-3-(cyclopropylmethyl)-10-(difluoromethyl)-16-fluoro-19-methyl-20-oxa-3,4,5,11,12,23-hexaazapentacyclo[19.3.1.0^2,^6.0^8,^12.0^13,^18]pentacosa-1(24),2(6),4,8,10,13,15,17,21(25),22-decaen-22-amine]
TPM3-NTRK1-wt/CD74-ROS1-G2032R: A (bin A for very high selectivity, ratio>30-fold)
TPM3-NTRK1-wt/CD74-ROS1-wt: A (bin A for very high selectivity, ratio>30-fold)
TPM3-NTRK1-wt/EML4-ALK-L1196M-G1202R: C (bin C for moderate selectivity, ratio≥1)
TPM3-NTRK1-wt/EML4-ALK-wt: B (bin B for high selectivity, ratio>10-fold)

C[C@H]1Oc2cc(cnc2N)-c2c(c(C#N)nn2CC2CC2)Cc2cccnc2-c2ccc(F)cc21 [Example 123, (20R)-23-amino-3-(cyclopropylmethyl)-17-fluoro-20-methyl-21-oxa-3,4,12,24-tetraazapentacyclo[20.3.1.0^2,^6.0^8,^13.0^14,^19]hexacosa-1(25),2(6),4,8(13),9,11,14,16,18,22(26),23-undecaene-5-carbonitrile]
TPM3-NTRK1-wt/CD74-ROS1-G2032R: C (bin C for moderate selectivity, ratio≥1)
TPM3-NTRK1-wt/CD74-ROS1-wt: A (bin A for very high selectivity, ratio>30-fold)
TPM3-NTRK1-wt/EML4-ALK-L1196M-G1202R: C (bin C for moderate selectivity, ratio≥1)
TPM3-NTRK1-wt/EML4-ALK-wt: A (bin A for very high selectivity, ratio>30-fold)

COc1cc2n(n1)-c1ccc(F)cc1[C@@H](C)Oc1cc(cnc1N)-c1c(c(C)nn1CC1CC1)C2 [Example 124, (19R)-3-(cyclopropylmethyl)-16-fluoro-10-methoxy-5,19-dimethyl-20-oxa-3,4,11,12,23-pentaazapentacyclo[19.3.1.0^2,^6.0^8,^12.0^13,^18]pentacosa-1(24),2(6),4,8,10,13,15,17,21(25),22-decaen-22-amine]
TPM3-NTRK1-wt/CD74-ROS1-G2032R: A (bin A for very high selectivity, ratio>30-fold)
TPM3-NTRK1-wt/CD74-ROS1-wt: A (bin A for very high selectivity, ratio>30-fold)
TPM3-NTRK1-wt/EML4-ALK-L1196M-G1202R: A (bin A for very high selectivity, ratio>30-fold)
TPM3-NTRK1-wt/EML4-ALK-wt: A (bin A for very high selectivity, ratio>30-fold)

Cc1nn(CC2CC2)c2c1Cc1cc(C(F)F)nn1-c1ccc(F)cc1[C@@H](C)Oc1cc-2cnc1N [Example 125, (19R)-3-(cyclopropylmethyl)-10-(difluoromethyl)-16-fluoro-5,19-dimethyl-20-oxa-3,4,11,12,23-pentaazapentacyclo[19.3.1.0^2,^6.0^8,^12.0^13,^18]pentacosa-1(24),2(6),4,8,10,13,15,17,21(25),22-decaen-22-amine]
TPM3-NTRK1-wt/CD74-ROS1-G2032R: A (bin A for very high selectivity, ratio>30-fold)
TPM3-NTRK1-wt/CD74-ROS1-wt: A (bin A for very high selectivity, ratio>30-fold)
TPM3-NTRK1-wt/EML4-ALK-L1196M-G1202R: A (bin A for very high selectivity, ratio>30-fold)
TPM3-NTRK1-wt/EML4-ALK-wt: A (bin A for very high selectivity, ratio>30-fold)

Reference: US11667649B2, “Heteroaromatic macrocyclic ether chemotherapeutic agents” (Nuvalent, Inc., priority 2020, dated 2023)
